The text below walks through data of PMC8253137, “Microbiota-derived butyrate is an endogenous HIF prolyl hydroxylase inhibitor” (Gut Microbes, 2021).

Assay [1] concerns T84 cells. Put plainly: 2-OG levels in T84 cells. The assay is classed as cell-based. The following applies: 3 h. The procedure:
(§1) T84 cells were cultured in 95% air with 5% CO2 at 37°C in standard media made of DMEM:F-12 supplemented with 10% calf serum, 1% penicillin/streptomycin, and 1% GlutaMAX™ (ThermoFisher Scientific) on 9.6 cm^2 6-well plates (ThermoFisher Scientific). Real-time oxygen sensing was done using the SensorDish Reader from Applikon Biotechnology as described previously with T84 cells plated on 0.33 cm^2 transwell inserts (Corning, 0.4 μm).[12] All MCPA treatments included a 2 h pretreatment with MCPA before treatment with butyrate.
Metabolites Extractions and HPLC-DAD: Cell and colon tissue metabolites were extracted and analyzed as previously described with minor variations.[61],[62] The metabolites were detected by absorption at wavelengths of 210, 254, and 280 nm, with their absorbance spectra and retention times verified by co-injection with authentic standards. Metabolites for HPLC-ESI MS analyses were resuspended in deionized water (pH 7.2).
HPLC-ESI MS: Analyses were performed on an Agilent Technologies 1260 Infinity II LC/MSD iQ with electrospray ionization (ESI) mass detection. Negative ion mass-to-charge ratios (m/z) were scanned from 50 to 500. The metabolite extracts were chromatographed using a Sepax Carbomix column (Pb-Np5:8%, 5 μm, non-porous, 4.6 × 300 mm) (mobile phase A: water; mobile phase B: acetonitrile; column temperature, 75°C). Chromatographic separation was performed using a combination of isocratic and gradient methods, including column washing and equilibration periods at the end (0 min: 100% A, 0.12 mL/min; 60 min: 100% A, 0.12 mL/min; 70 min: 70% A, 0.5 mL/min; 145 min: 70% A, 0.5 mL/min; 150 min: 100% A, 0.5 mL/min; 164 min, 100% A, 0.5 mL/min; 165 min, 100% A, 0.12 mL/min; 170 min, 100% A, 0.12 mL/min).

The subject of the next assay is HDACs. More on the design: method as in PMID 18061431, PMID 30052654. The conditions noted are these: cited from earlier work.
For a further assay, the system named is murine enteroids. Put plainly: HIF stabilization in differentiated murine enteroids. The following applies: butyrate with or without 1 mM MCPA, 4 h. The assay is classed as cell-based, mice. As to the method: Murine intestinal organoids/enteroids were isolated from wild-type C57BL/6 mice and cultured as previously described.[60] Briefly, colonic tissues were minced and then enzymatically digested and dissociated in GentleMACS tubes (Milteny Biotec). The homogenized tissues were then filtered through a 70 µm cell strainer and resuspended in Matrigel (Corning). Cells were cultured in L-WRN conditioned media until ready for differentiation into an epithelial lineage, in which the cells were incubated for 2 d in L-WRN media diluted 5-fold with DMEM:F-12 supplemented with 10% calf serum, 1% penicillin/streptomycin, and 1% GlutaMAX™. […] MCPA treatment also includes a 2 h pretreatment with MCPA before butyrate was added.
TRIzol® reagent (ThermoFisher Scientific) was used to isolate total RNA from T84 cells. […] Quantitative PCR analysis was performed using the Power SYBR™ Green master mix (Applied Biosystems) in a thermocycler. Fold change in expression of target mRNA relative to β-actin (ACTB) mRNA was calculated using the delta-delta Ct method. […]
T84 cells were rinsed with PBS and collected and lysed in 200 µL of radioimmunoprecipitation assay (RIPA, 50 mM Tris-HCl pH 8.0, 1 mM EDTA, 1% Triton X-100, […], 0.5% sodium deoxycholate, 150 mM NaCl) buffer with protease inhibitors on ice. […] Protein quantity of the supernatant was determined using the Bradford reagent. […]

The target of the next assay is PHD2_181-402 (Homo sapiens, UniProt Q9GZT9). Put plainly: Microscale thermophoresis (MST) binding.
In assay [2] the test system is T84 cells. Put plainly: HIF stabilization in T84 cells (HIF-1α target mRNA, HIF-1α western blot). The assay is classed as cell-based. The conditions noted are these: 4 h. As to the method:
as §1
TRIzol® reagent (ThermoFisher Scientific) was used to isolate total RNA from T84 cells. Mouse colon tissue samples were harvested into RNAlater™ (Invitrogen) and stored at 4°C for 48 h. Total RNA was isolated from the tissues using RNeasy Plus Mini Kit (Qiagen). cDNA was prepared using the iScript cDNA Synthesis Kit (Bio-Rad). Quantitative PCR analysis was performed using the Power SYBR™ Green master mix (Applied Biosystems) in a thermocycler. Fold change in expression of target mRNA relative to β-actin (ACTB) mRNA was calculated using the delta-delta Ct method. Primer sequences used are as follows: hBNIP3 – forward, 5′- […] −3′, reverse, 5′- […] −3′; hBNIP3L – forward, 5′- […] −3′, reverse, 5′- […] −3′; hGLUT1 – forward, 5′- […] −3′, reverse, 5′- […] −3′; hACTB – forward, 5′- […]-3′, reverse, 5′- […]-3′; mBnip3 – forward, 5′- […] −3′, reverse, 5′- […] −3′; mBnip3l – forward, 5′- […] −3′, reverse, 5′- […] −3′; mGlut1 – forward, 5′- […] −3′, reverse, 5′- […] −3′; and mActb – forward, 5′- […] −3′, reverse, 5′- […] −3′.
T84 cells were rinsed with PBS and collected and lysed in 200 µL of radioimmunoprecipitation assay (RIPA, 50 mM Tris-HCl pH 8.0, 1 mM EDTA, 1% Triton X-100, […], 0.5% sodium deoxycholate, 150 mM NaCl) buffer with protease inhibitors on ice. Mouse colon samples were harvested into 350 µL of RIPA buffer and flash frozen in liquid nitrogen. Samples were homogenized by sonication, and insoluble materials removed by centrifugation at 10,000 g for 5 min at 4°C. Protein quantity of the supernatant was determined using the Bradford reagent. […]

Sequence of PHD2_181-402 (Q9GZT9 181-402): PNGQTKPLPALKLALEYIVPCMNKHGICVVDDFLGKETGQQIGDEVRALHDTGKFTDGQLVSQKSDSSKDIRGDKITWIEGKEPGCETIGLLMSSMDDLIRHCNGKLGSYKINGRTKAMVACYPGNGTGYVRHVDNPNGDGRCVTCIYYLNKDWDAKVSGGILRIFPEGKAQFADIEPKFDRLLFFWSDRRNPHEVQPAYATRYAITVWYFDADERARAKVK

Regarding `CCCC(=O)O` [Butyrate], the “2-OG levels compared to control” value in the assay with T84 cells [1] (10 mM butyrate or 30 μM IOX2) is listed as “significantly increased”. In the assay on T84 cells [1] (10 mM butyrate with 1 mM MCPA), the “2-OG levels in the presence of MCPA” value is “significantly increased”. Besides, the HDAC inhibition entry with HDACs is given as “most potently inhibits HDACs”. In the assay with murine enteroids, the HIF-1α protein expression result was “increased HIF-1α protein expression” and the “HIF-1α target gene expression” value is given as “induced expression of HIF-1α target genes”. Further, the Kd on PHD2_181-402 worked out at 2000 ± 3000 µM. The “binding to PHD2_181-402 in the presence of 2-OG (MST)” value on PHD2_181-402 (25 nM PHD2_181-402, with 500 nM 2-OG) is on record as “no butyrate binding”. Moreover, the “HIF stabilization in the presence of MCPA” value with T84 cells [2] (10 mM butyrate with 1 mM MCPA) is “still stabilized HIF”. In addition, in the assay on T84 cells [2] (10 mM butyrate), the HIF-1α protein levels result is given as “increased” and the “HIF-1α target gene mRNA (BNIP3, BNIP3L, GLUT1)” value is on record as “induction”.
